This note sets out measurements from ChEMBL document CHEMBL1201862, “PubChem BioAssay data set” (2004).

The nature of assay [1]: insulin promoter down-regulators in MIN6 cells, imaging, high-content screening, mouse beta cells (AID 1628). The class given is functional.
Assay [2] can be described thus: cytotoxicity in MIN6 insulinoma cells, dose response, cytotoxicity control, cell-based, mouse insulinoma (AID 2122).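 Further: confirmatory high-throughput counterscreen run to flag cytotoxic compounds; mouse MIN-6 beta cells carrying an insulin promoter eGFP reporter.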 The class given is functional.
Assay [3] in a line: inhibitors of intracellular T. cruzi replication, confirmation, NIH3T3 host cells, beta-gal luminescence (AID 2044).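 Further: intracellular parasites grown in NIH/3T3 mouse fibroblasts as host cells; luminescent beta-galactosidase reporter signal from transgenic T. cruzi replicating inside host cells; inhibitors lower the luminescence signal.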 Format: functional, cell-based.
A short description of assay [4]: cytotoxicity toward NIH3T3 fibroblasts, dose response, counter-screen, cell-based, ATP luminescence, mouse fibroblasts (AID 2010).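 Further: cells exposed to compound for about 90 hours before reading.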 Format: functional. On the technique in general: A counterscreen serves to expose hits that act by an unwanted route or on another target.
The test system of a further assay is Jurkat. Description: antigen receptor-induced NF-kB inhibitors, dose response, Jurkat, luciferase reporter, luminescence, B- and T-cell (AID 489004).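 Further: NF-kB luciferase reporter Jurkat cells stimulated with PMA plus ionomycin.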 Format: functional, cell-based. The settings on record: Homo sapiens.
A short description of assay [5]: cytotoxicity in HEK-293T NF-kB-Luc cells, dose response, cytotoxicity control for B/T-cell NF-kB inhibitor project, cell-based, uHTS hits (AID 489019).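 Further: IC50 reflects cytotoxicity as loss of cell viability.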 The class given is functional.
For the next assay, the system named is INS1. The assay can be described thus: beta cell apoptosis inhibitors, cytokine rescue, dose response, luminescence, retest (AID 449756).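 Further: cell death triggered by IL-1 beta plus TNF-alpha plus IFN-gamma mixture; protective hits raise ATP signal compared with cytokine alone wells.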 The class given is functional, cell-based. The settings on record: Rattus norvegicus.
The target of assay [6] is Multidrug resistance protein CDR2 (Candida albicans (strain SC5314 / ATCC MYA-2876) (Yeast), UniProt P78595). The assay can be described thus: CaCDR2 efflux pump inhibitors in yeast, dose response, S. cerevisiae AD1-8u, singleplex, Cherry Pick2 set (AID 623994). Format: functional. The settings on record: read-out: EC50_MICROM.
Chain of Multidrug resistance protein CDR2 (P78595 whole entry): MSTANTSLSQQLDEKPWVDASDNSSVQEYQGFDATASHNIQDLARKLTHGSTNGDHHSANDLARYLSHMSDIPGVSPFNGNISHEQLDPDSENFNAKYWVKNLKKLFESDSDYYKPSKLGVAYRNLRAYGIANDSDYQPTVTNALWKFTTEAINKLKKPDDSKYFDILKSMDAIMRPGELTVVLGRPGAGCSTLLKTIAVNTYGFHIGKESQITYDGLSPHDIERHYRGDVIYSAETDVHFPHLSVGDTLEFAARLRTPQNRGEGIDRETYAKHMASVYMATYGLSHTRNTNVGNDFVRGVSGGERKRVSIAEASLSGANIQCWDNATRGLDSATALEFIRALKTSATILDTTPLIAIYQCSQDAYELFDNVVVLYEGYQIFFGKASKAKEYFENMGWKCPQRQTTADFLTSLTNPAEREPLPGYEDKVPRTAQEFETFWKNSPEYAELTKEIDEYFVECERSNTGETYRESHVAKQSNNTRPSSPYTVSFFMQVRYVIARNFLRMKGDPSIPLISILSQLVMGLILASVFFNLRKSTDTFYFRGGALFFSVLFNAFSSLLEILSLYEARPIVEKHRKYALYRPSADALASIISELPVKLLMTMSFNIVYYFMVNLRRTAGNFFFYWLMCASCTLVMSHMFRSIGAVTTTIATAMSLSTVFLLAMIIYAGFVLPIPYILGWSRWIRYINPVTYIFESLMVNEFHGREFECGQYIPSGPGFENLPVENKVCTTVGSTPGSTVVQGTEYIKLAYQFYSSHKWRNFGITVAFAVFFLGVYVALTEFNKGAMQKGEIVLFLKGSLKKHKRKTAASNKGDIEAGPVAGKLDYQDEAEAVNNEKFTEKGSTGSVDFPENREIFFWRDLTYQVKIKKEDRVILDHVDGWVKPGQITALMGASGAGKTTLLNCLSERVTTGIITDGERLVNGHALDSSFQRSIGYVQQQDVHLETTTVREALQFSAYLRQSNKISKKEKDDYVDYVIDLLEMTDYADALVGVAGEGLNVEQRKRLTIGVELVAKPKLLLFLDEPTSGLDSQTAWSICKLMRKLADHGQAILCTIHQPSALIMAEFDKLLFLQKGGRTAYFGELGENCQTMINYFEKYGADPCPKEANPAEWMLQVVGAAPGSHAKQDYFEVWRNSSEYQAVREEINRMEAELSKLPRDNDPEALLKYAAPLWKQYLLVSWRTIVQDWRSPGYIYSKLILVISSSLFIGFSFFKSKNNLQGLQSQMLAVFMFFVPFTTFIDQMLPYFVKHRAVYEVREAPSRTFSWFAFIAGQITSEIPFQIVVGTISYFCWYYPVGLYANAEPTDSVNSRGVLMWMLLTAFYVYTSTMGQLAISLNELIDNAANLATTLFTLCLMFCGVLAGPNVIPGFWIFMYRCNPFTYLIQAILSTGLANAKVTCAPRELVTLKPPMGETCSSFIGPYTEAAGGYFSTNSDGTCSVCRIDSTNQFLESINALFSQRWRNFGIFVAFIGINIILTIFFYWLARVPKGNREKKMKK
Assay [7] is described as follows: AlphaScreen signal interference compounds, dose response, artefact control for ARNT-TACC3 interaction inhibitor project, biochemical, luminescence, cherry-pick (AID 651705).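 Further: AlphaScreen bead proximity signal that flags compounds interfering with the detection technology; potency reflects signal decrease which marks the compound as an assay artifact.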 Format: functional. (In general: Alpha assays give light when donor and acceptor beads are brought close together.)
In assay [8] the target is Low molecular weight phosphotyrosine protein phosphatase (Homo sapiens, UniProt P24666). The class given is functional. The settings on record: read-out: IC50_Mean.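 Further: Dose-response confirmation assay measuring inhibition of LMPTP enzyme activity by fluorescence intensity read-out.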
Chain of Low molecular weight phosphotyrosine protein phosphatase (P24666 whole entry, the tested form may be a part): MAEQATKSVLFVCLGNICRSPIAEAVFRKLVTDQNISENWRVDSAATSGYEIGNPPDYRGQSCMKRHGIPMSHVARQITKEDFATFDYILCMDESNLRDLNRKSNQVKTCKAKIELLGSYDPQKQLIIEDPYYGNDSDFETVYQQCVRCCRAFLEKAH
Assay [9] can be described thus: Fluorescence-based cell-based high throughput dose response assay for inhibitors of the interaction of nucleotide-binding oligomerization domain containing 2 (NOD2) and the receptor-interacting serine-threonine kinase 2 (RIPK2). The class given is functional. The settings on record: Homo sapiens.
Another assay addresses Beta Lactamase (Pseudomonas aeruginosa, UniProt Q932Y6). The assay can be described thus: beta-lactamase reporter inhibitor potency, dose response, artefact control for NOD2-RIPK2 interaction inhibitor project, BLA reporter cells, FRET fluorescence (AID 651552). The class given is functional, cell-based.
Assay [10] has as its target Hepatocyte nuclear factor 4-alpha (Homo sapiens, UniProt P41235). Format: functional, cell-based.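 Further: biochemical luminescence-based dose-response counterscreen measuring inhibition of HNF4 dimerization, run alongside a screen for blockers of ABHD5–perilipin-5 interaction; split luciferase complementation of HNF4 fusion proteins in cell lysate measuring dimerization.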
In assay [11] the target is T1, ATP-dependent translocase ABCB1 (Homo sapiens, UniProt P08183). The assay can be described thus: ABCG2 efflux pump inhibitor potency, dose response, Ig-MXP3 cells, JC-1, flow cytometry, set 2 (AID 504566).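 Further: flow cytometry median green fluorescence of retained JC-1 dye; potency of efflux pump inhibition measured as rising substrate retention.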 The class given is functional. The settings on record: read-out: EC50_MICROM_. A general note: Flow cytometry measures light scatter and fluorescence of single cells or particles in a stream.
T1 sequence (P08183 whole entry): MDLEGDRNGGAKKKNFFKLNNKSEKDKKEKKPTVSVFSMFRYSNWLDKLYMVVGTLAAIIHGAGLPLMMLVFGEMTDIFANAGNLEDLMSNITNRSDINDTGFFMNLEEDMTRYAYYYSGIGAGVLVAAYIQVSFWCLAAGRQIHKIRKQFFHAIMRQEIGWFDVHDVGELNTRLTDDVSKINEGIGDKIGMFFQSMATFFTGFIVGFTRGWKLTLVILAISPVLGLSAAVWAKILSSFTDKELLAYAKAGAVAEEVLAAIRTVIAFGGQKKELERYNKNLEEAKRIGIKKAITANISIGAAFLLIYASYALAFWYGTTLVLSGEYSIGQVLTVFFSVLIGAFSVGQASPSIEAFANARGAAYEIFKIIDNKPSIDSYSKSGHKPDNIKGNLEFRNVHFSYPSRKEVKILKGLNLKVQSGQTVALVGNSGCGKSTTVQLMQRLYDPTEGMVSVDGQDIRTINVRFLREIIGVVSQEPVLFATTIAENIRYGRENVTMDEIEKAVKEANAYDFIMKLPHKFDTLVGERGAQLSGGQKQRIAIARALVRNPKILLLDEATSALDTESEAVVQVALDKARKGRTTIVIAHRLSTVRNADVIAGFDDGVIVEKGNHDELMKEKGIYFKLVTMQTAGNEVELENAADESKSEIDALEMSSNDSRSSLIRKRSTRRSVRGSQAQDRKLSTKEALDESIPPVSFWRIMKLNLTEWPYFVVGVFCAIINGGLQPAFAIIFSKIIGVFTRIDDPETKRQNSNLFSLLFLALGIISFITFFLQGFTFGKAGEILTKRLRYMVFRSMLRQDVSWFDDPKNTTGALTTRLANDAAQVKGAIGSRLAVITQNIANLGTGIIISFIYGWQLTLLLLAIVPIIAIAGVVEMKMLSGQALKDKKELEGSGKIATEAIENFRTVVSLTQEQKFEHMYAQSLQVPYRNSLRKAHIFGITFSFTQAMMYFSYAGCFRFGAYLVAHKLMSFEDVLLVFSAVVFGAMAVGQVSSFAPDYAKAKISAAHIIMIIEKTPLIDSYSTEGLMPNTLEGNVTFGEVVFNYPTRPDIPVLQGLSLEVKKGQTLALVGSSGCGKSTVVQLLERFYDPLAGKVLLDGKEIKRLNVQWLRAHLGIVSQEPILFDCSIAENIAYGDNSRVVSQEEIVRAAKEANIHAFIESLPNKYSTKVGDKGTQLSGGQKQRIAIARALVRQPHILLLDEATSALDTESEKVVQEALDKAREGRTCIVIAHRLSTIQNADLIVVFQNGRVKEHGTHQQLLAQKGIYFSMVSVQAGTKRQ

For assay [12], the target named is T1, ATP-dependent translocase ABCB1. The assay can be described thus: ABCB1 efflux inhibitor potency, dose response, Jurkat-DNR cells, JC-1, flow cytometry, set 2 (AID 504569).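 Further: potency of pump inhibitors that raise cellular JC-1 green fluorescence up to the nicardipine level.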 The class given is functional. The settings on record: read-out: EC50_MICROM_.
The target of assay [13] is T2, Interleukin-8 (Homo sapiens, UniProt P10145). Description: Dose Response confirmation of uHTS small molecule hits for cystic fibrosis induced NFkb Inhibitors in a TNFa-induced IL8 counterscreen. The settings on record: read-out: IC50_Mean. The class given is functional.
T2 sequence (P10145 whole entry): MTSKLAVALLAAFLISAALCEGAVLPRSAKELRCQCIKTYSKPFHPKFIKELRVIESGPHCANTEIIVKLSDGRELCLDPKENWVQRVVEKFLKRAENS
Assay [14] concerns the target T2, Interleukin-8. The assay can be described thus: Dose Response confirmation of uHTS small molecule hits for cystic fibrosis induced NFkb Inhibitors in a PAF-induced IL8 counterscreen. The class given is functional. The settings on record: read-out: IC50_Mean.

Structures are written as SMILES. Active and inactive are the calls of the source.

Chain of Beta Lactamase (Q932Y6 whole entry, the tested form may be a part): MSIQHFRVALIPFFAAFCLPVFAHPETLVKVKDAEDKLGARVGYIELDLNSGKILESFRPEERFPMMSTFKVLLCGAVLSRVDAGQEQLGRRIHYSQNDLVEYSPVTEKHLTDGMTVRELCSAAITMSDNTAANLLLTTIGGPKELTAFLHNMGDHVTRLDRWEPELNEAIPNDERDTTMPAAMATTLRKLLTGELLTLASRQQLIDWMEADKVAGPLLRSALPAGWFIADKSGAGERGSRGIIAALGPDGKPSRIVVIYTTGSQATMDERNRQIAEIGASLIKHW
Chain of Hepatocyte nuclear factor 4-alpha (P41235 whole entry, the tested form may be a part): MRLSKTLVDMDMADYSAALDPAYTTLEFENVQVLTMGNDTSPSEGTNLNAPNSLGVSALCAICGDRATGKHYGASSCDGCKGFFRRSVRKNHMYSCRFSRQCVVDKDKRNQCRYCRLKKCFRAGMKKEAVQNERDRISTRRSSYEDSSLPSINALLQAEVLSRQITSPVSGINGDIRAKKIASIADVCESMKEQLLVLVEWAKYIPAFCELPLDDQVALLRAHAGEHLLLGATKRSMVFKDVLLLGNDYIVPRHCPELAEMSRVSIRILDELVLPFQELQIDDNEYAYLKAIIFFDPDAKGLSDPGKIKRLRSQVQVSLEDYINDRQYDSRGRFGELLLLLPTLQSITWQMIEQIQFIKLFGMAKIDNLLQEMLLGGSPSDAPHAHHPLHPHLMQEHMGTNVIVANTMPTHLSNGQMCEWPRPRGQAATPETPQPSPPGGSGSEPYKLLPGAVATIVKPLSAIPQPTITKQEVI

For `NC1=NC[C@H](Cc2ccc(O)cc2)N1CCCCC1CCCCC1`, the IC50 in [1] was 3.72 µM (active); in [2], 4.52 µM (active); in the assay on Jurkat, 8.18 µM (active); in assay [5], 67.6 µM (inactive). Moreover, the EC50 was 1.4 µM (active) in assay [3], > 60 µM (not active) in assay [4] and 15.9 µM (active) in assay [6]. Further, the AC50 in the assay on INS1 was 2.43 µM (active).

On to `COCCn1c(-c2ccccc2)cnc1N`, for which, in [7], the concentration at half-maximal activity (AC50) is 115 µM (active).

In the case of `COC(=O)c1ccc(C(=O)OC)c(NC(=O)Cc2cccs2)c1`, in assay [8], the IC50 was 27.9 µM (inactive).

As for `Cc1c(C(=O)Nc2ccccc2)c2ccc(C(F)(F)F)cc2n1O`, the IC50 was 14.5 µM (inactive) in assay [9] and 19.4 µM (inactive) at Beta Lactamase.

As for `O=C(NC1CCCCC1)C(c1ccc(-c2ccccc2)cc1)n1c(=O)c(-c2ccco2)nc2ccccc21` (configuration not stated), the IC50 in assay [10] is 2.74 µM (active).

Consider `O=C(c1ccoc1)N1CCN(c2cc(-c3ccc(F)cc3)nc3cc(-c4cccc(Cl)c4)nn23)CC1`, for which the EC50 in assay [11] was 2.75 µM (active); in assay [12], 5.57 µM (active).

Turning to `COc1cccc(-c2ccc3ncnc(NCc4cc(C)cs4)c3c2)c1`, the IC50 is 5.37 µM (active) at Interleukin-8 [13] and 12.4 µM (inactive) at Interleukin-8 [14].

For orientation: AC50 means the concentration giving half of the maximal activity seen.
